According to patent US20030134779A1, “Method and composition for treatment and/or prevention of antibiotic-resistant microorganism infections” (priority 2002, published 2003):

Legend:
Type in all cases: cell-based, Staphylococcus aureus
[1] = tested on: β-lactamase (BlaZ) gene expression in S. aureus strain SHY97-4320; test: BlaZ gene expression, real-time quantitative RT-PCR, and total RNA
Experimental: Fresh MHB containing or not 8 μg/ml of penicillin G and/or 1 mg/ml of bovine LF (2×2 factorial design) was adjusted to an optical density at 540 nm of 0.04 with an overnight culture of S. aureus and then incubated at 37° C. with agitation (150 rpm). After 4 and 22-h of incubation, aliquots were removed to determine bacterial growth by viable count (colony forming unit per ml, cfu/ml), measuring the culture turbidity (OD540nm) with a spectrophotometer Philips PU and to measure β-lactamase activity in bacterial cells. Following culture under the same condition, bacterial cells were collected for RNA extraction.
Total bacterial RNA was prepared using the RNeasy minikit (Qiagen, Mississauga, ON, Canada). Washed bacteria were first treated with 50 μg/ml of lysostaphin (GramCracker, Ambion, Austin, Tex.) for 10 min at 37° C. and RNA was purified according to the manufacturer's protocol. Contaminating DNA was removed from total RNA by using 1 U of Rnase-free Dnase I (Gibco Life Technologies, Grand Island, N.Y.) in a 10 μl reaction mixture containing approximately 50 ng of total RNA per μl and 20mM Tris-HCl (pH 8.4), 2 mM MgCl2 and 50 mM KCl. The reaction mixture was incubated for 15 min at room temperature, and the Dnase I was inactivated by adding 1 μl of 25 mM EDTA to the mixture and incubating for 10 min at 65° C. before assessing quantity and purity. Amount of cellular RNA was then determined by measuring the OD260 nm and OD280 nm.
Real-Time fluorescence-based 5′ nuclease PCR which is a widely accepted method for measuring gene expression levels was used to quantify β-lactamase BlaZ RNA by RT-PCR on ABI Prism™ 7700 (TaqMan® ) sequence detector (PE Applied Biosystem, Foster City, Calif.). The forward primer, reverse.primer, and TaqMan probe for Real-Time RT-PCR amplification were designed with the PrimerExpress software (PE Applied Biosystem) to specifically amplify the. S. aureus BLAZ gene. Briefly, RNA (50 ng) was added to a 50 μl reaction mixture containing 25 μl of 2×RT-PCR One-Step Universal Master Mix, 1.25 μl of 40×MultiScribe and Rnase Inhibitor Mix, 4.5 μl of the forward primer (10 μM, 5′-[…]-3′, SEQ ID NO:3), 4.5 μl of the reverse primer (10 μM, 5′-[…]-3′, SEQ ID NO:4), and 1.25 μl of TaqMan probe (10 μM, 6FAM-[…]-TAMRA, SEQ ID NO:5). Reverse transcription with the recombinant Moloney Murine Leukemia Virus (M-MuLV) Reverse Transcriptase (0.25 U/μl) was conducted at 48° C. for 30 min. […] The cycle threshold value (CT), indicative of the quantity of target gene at which the fluorescence exceeds a pre-set threshold, was determined and compared to the CT of a standard curve containing known amounts of mRNA (1.1×10^2 to 1.1×10^9) from the BLAZ gene of S. aureus obtained by in vitro transcription. […]

S. aureus ATCC 25923 = test: Bacterial growth in MHB
Experimental: (§1) The effect of LF or LFC at concentration sub-MICs alone or in combination with sub-MICs of antibiotics on bacterial growth rate of S. aureus, E. coli and K. pneumoniae was determined by monitoring bacterial cultures in MHB with the O.D.600 nm or by the count of colony forming unit per ml (cfu/ml). A volume of 2.5 ml of overnight cultures in MHB adjusted to 0.5-1 McFarland standard in saline were used to inoculate a final volume of 25 ml of fresh MHB containing the desired concentration of tested compounds. All flasks were then incubated at 37° C. with agitation (200 rpm) for 9 h. Aliquots were removed every hour to determine the culture turbidity using the spectrophotometer Philips PU 8800 (Pye Unican Ltd, Cambridge, UK). The combined antibiotic effect on bacterial growth was also determined using concentrations of LF in the presence of different concentrations of antibiotics. Briefly, a volume of 3 ml of fresh MHB containing desired concentration of drugs was adjusted to an optical density of 0.4 at 540 nm after an overnight culture. The culture was then incubated at 37° C with agitation (200 rpm). After incubation, aliquots were removed to determine the culture turbidity (OD540nm) or cfu/ml. To determine the influence of the level of iron on of the growth inhibition by the test compound, 5 μM of FeCl3 were added to the media.

S. aureus PC-1 = test: Bacterial growth in MHB
Experimental: as §1

[2] = tested on: S. aureus strains SHY97-4242 and RFT-5; test: Bacterial growth in MHB
Experimental: as §1

[3] = tested on: β-lactamase activity of S. aureus SHY97-4320; test: β-lactamase activity, nitrocefin assay, human LF; details: 8-μg/ml penicillin G alone
Experimental: Penicillin G was purchased from Novopharm Limited (Toronto, Ontario, Canada). […] Antibiotic stock solutions were always freshly prepared and diluted to the desired concentration in Mueller Hinton broth (MHB) medium (Difco Laboratories, Detroit, MI). β-Lactamase activity was measured using a quantitative spectrophotometric assay with the chromogenic cephalosporin nitrocefin. Bacterial cells were first exposed to penicillin and/or LF during 4 and 22-h in broth. At each time point, the number of cfu/ml were determined and cells aliquots were centrifuged.
The pellets were suspended in 10 mM HEPES buffer (pH 7.4) to an OD415 nm of 0.4 for PC-1 and 4 for strain SHY97-4320. Nitrocefin (100 μM) was added to 20 μl of cells in a final volume of 200 μl. Hydrolysis was measured at 486 nm on a Spectra Max 250 Microplate Spectrophotometer System of Molecular Device (Fisher Scientific, Ottawa, Canada). β-Lactamase activity was expressed as ΔO.D.486 nm/min and corrected for bacterial OD.

[4] = sub-MIC penicillin G (1/4 to 1/16 MIC) with 1 mg/ml LF, P<0.01

CC1(C)S[C@@H]2[C@H](NC(=O)Cc3ccccc3)C(=O)N2[C@H]1C(=O)O [penicillin G, Penicillin G]
BlaZ total: total number of copies of BlaZ gene mRNA/ml of culture ([1]; LF 1 mg/ml and/or penicillin G): 174.9 × 10^5 copies/ml of culture
BlaZ: number of copies of BlaZ gene mRNA/50 ng of mRNA ([1]; LF 1 mg/ml and/or penicillin G): 22.9 × 10^4 copies/50 ng of mRNA
RNA ([1]; adjusted for an OD540nm of 1.0, LF 1 mg/ml and/or penicillin G): 3.22 ± 0.49 :g/ml
increase in the number of copies of the BlaZ mRNA per ml of culture ([1]; penicillin G added to the growth medium, P<0.01): 28 fold
growth (S. aureus ATCC 25923; penicillin G combined with 32 μg/ml LFC (⅛ MIC)): Complete growth inhibition
growth rate (S. aureus ATCC 25923; [4]): important growth rate reductions
growth (S. aureus PC-1; penicillin G combined with 64 μg/ml LFC (⅛ MIC)): Complete growth inhibition
growth rate (S. aureus PC-1; sub-MIC of penicillin G alone): did not significantly affect growth rate
growth rate (S. aureus PC-1; [4]): important growth rate reductions
effect of addition of iron on growth inhibition ([2]; combination of penicillin to LF): did not affect
growth inhibitory activity of penicillin ([2]; in the presence of LF, P<0.01): enhanced
growth ([2]; penicillin G alone, P<0.001): reduced the growth
β-lactamase activity [3]: present
